Results published in patent publication US20120135417A1, “METHODS FOR SCREENING AND IDENTIFYING COMPOUNDS” (priority 2009, published 2012).

Experiments:
Assay type in all cases: biochemical
[1] = system: FMN riboswitch (B. subtilis ribDEAHT operon); experiment: FMN riboswitch-mediated in vitro transcription termination assay, [α-33P]-ATP radiometric detection
Procedure: The FMN riboswitch within the leader sequence of the B. subtilis ribDEAHT operon was amplified by PCR from B. subtilis strain 168 (Bacillus Genetic Stock Center—designation 1A1). PCR of a B. subtilis genomic preparation is performed using Platinum® Taq DNA Polymerase High Fidelity from Invitrogen (catalog #11304-011) and the sense PCR and the antisense polyA PCR primers (SEQ ID: NO 1 and 2, or SEQ ID: NO 1 and 3, respectively, as shown in table below). […] These overhangs allow the ligation of DNA into the pCR®2.1-TOPO® vector using a TOPO TA Cloning® kit (Invitrogen catalog #K4500-01). Following transformation, colonies that contained disrupted β-galactosidase are picked and grown overnight. Correct insertion and orientation of PCR product are verified by restriction analysis and sequencing. PCR of the resulting clone is used to generate DNA sequences for use in in vitro transcription termination assays. […]
Synthetic DNA primers and a biotinylated oligo (dT) may be obtained from the Keck Foundation Biotechnology Resource Center at Yale University. […] 50 μl of Microscint™PS (PerkinElmer, catalog #6013631) are then added to wells and the plate is read in a TopCount®NXT™ microplate scintillation and luminescence counter (PerkinElmer). Other readers and counters may be also be used. […]

[2] = system: FMN riboswitch (B. subtilis ribDEAHT operon); experiment: FMN riboswitch-mediated in vitro transcription termination assay, RiboGreen fluorescence detection; conditions: FIG. 14; RNA binding fluorophore (RiboGreen) detection, 10 μM each rNTP, 3 mM Mg2+, 4-hour reaction
[3] = system: TPP riboswitch (B. subtilis tenA operon); experiment: TPP riboswitch-mediated in vitro transcription termination assay, RiboGreen fluorescence detection; conditions: FIG. 15; RNA binding fluorophore (RiboGreen) detection, 5 μM each rNTP, 2 mM Mg2+, 3-hour reaction
Procedure: In vitro plate-based transcription assay: In vitro transcription reactions are carried out at 25° C. in a total reaction volume of 50 μL. Reactions are performed in Reacti-Bind™ Streptavidin High Binding Capacity Coated 96-Well Plates (Pierce, catalog #15502) in assay buffer at a final concentration of 20 mM HEPES at pH 8.0, 60 mM KCl, 0.1 mM EDTA, and 0.005% BSA. To prepare plates, wells are washed three times with successive addition and aspiration of wash buffer containing 25 mM Tris-HCl at pH 7.4 and 150 mM NaCl. Each well is then given assay buffer, followed by addition of FMN into control wells or DMSO into test wells. Enzyme mixture containing sigma-saturated E. coli polymerase (Epicentre Biotechnologies, catolog #S90250) was then added to all wells. The reaction was initiated by the addition of a start mix containing ribonucleotides (Promega, Catalog #P1300), biotinylated oligo (dT)25, magnesium, [α-^33P]-labeled ATP and DNA sequence. […] 50 μl of Microscint™PS (PerkinElmer, catalog #6013631) are then added to wells and the plate is read in a TopCount®NXT™ microplate scintillation and luminescence counter (PerkinElmer). […]

[4] = target: T1, E. coli RNA polymerase (Escherichia coli, UniProt P0A8V2); experiment: In vitro plate-based transcription assay, inhibition of RNA polymerase activity (radiometric); conditions: FIG. 10; 12.5 μM each rNTP, 2.5 mM Mg2+, 0.1 Unit RNA polymerase; read-out: IC50 value for inhibition of the in vitro transcription reaction
T1 construct: purchased Epicentre Biotechnologies S90250
Procedure: Synthetic DNA primers and a biotinylated oligo (dT) may be obtained from the Keck Foundation Biotechnology Resource Center at Yale University. Flavin mononucleotide (FMN) may be purchased from Fluka BioChemika (catalog #83810). [α-^33P] labeled Adenosine 5′ triphosphate was acquired from American Radiolabeled Chemicals, Inc. (catalog #ARP0131). In vitro plate-based transcription assay: In vitro transcription reactions are carried out at 25° C. in a total reaction volume of 50 μL. […] 50 μl of Microscint™PS (PerkinElmer, catalog #6013631) are then added to wells and the plate is read in a TopCount®NXT™ microplate scintillation and luminescence counter (PerkinElmer). Other readers and counters may be also be used.
The antibacterial rifampin is an RNA polymerase inhibitor (Liu, J., Feldman, P. A., Lippy, J. S., Bobkova, K., Kurilla, M. G, and Chung, T. D. Y., 2001 Analytical Biochemistry, 289, 239-245, Fujii, K., Saito, H., Tomioka, H., Mae, and T., Hosoe, K., 1995 Antimicrobial Agents and Chemotherapy, 39, 1489-1492, Morris, A. B., Brown, R. B., and Sands, M., 1993 Antimicrobial Agents and Chemotherapy 37, 1-7). Rifampin is titrated to inhibit in vitro transcription reaction and its inhibitory IC50 value is determined (FIG. 10). […]

T1 sequence (P0A8V2 whole entry): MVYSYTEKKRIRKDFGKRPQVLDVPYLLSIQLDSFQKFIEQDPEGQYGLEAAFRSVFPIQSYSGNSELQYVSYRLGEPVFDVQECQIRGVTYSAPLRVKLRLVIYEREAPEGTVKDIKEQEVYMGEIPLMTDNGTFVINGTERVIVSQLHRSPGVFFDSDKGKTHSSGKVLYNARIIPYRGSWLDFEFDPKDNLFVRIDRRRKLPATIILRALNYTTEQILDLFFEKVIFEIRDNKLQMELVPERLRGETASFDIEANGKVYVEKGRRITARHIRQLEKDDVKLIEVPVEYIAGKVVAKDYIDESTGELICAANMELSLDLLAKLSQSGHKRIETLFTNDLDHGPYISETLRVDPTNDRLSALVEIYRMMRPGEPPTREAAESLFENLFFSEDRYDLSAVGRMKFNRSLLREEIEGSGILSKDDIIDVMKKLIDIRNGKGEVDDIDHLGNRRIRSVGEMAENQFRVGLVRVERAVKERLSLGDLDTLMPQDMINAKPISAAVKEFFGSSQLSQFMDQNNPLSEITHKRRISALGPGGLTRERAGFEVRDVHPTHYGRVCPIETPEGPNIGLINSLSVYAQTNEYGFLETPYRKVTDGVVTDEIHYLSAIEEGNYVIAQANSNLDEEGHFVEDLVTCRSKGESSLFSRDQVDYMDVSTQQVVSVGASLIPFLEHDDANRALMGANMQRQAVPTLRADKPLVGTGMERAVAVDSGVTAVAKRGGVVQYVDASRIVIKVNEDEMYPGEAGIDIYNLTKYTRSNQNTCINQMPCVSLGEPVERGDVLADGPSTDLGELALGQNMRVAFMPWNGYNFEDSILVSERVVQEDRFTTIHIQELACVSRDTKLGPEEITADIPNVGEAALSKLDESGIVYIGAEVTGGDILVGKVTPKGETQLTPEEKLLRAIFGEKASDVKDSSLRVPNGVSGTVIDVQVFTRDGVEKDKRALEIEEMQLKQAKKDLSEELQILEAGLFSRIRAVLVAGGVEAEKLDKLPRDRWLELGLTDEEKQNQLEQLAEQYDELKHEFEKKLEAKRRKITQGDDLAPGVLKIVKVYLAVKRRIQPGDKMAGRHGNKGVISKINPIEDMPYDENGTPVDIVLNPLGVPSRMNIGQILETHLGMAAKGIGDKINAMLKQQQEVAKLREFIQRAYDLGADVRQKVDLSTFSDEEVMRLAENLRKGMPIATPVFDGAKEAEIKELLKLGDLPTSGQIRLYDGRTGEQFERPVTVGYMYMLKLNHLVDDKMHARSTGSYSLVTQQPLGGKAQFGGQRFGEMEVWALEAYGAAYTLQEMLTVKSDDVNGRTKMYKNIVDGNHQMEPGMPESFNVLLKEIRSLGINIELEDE
T1 sequence (P0A8T7 whole entry partner): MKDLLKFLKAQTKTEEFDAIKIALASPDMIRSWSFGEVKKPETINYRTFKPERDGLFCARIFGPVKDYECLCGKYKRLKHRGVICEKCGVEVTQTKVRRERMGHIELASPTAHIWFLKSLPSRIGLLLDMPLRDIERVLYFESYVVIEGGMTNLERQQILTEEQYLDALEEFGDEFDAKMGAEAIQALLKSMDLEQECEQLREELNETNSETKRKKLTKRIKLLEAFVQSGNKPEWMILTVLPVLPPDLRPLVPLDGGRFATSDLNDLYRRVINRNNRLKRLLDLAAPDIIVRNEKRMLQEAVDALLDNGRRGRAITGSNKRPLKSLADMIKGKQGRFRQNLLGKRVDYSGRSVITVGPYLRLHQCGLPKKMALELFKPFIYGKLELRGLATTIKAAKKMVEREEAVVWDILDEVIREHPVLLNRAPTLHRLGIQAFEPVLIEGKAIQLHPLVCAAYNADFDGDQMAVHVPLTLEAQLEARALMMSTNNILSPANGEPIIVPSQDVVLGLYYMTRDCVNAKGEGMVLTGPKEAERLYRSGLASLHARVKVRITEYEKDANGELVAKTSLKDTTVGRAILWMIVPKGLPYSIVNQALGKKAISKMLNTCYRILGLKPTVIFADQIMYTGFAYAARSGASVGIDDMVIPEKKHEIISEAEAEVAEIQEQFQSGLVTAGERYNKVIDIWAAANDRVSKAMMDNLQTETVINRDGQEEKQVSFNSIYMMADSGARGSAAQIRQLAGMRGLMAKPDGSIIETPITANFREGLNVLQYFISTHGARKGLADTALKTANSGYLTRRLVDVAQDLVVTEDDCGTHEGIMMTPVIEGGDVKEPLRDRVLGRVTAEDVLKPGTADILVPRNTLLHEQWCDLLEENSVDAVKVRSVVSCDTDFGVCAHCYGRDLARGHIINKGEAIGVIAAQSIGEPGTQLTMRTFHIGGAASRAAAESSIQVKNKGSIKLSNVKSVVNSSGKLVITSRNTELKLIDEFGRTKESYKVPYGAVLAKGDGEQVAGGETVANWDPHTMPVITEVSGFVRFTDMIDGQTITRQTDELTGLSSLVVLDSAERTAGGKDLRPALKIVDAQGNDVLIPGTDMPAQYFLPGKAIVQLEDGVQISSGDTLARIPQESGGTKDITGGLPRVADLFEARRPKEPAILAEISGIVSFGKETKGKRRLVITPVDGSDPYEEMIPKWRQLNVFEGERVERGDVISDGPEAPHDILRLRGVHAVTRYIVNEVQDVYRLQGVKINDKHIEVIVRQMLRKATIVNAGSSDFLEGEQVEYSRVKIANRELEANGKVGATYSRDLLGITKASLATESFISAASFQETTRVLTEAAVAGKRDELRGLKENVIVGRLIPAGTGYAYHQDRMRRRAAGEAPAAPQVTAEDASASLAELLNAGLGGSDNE
T1 sequence (P0A7Z4 whole entry partner): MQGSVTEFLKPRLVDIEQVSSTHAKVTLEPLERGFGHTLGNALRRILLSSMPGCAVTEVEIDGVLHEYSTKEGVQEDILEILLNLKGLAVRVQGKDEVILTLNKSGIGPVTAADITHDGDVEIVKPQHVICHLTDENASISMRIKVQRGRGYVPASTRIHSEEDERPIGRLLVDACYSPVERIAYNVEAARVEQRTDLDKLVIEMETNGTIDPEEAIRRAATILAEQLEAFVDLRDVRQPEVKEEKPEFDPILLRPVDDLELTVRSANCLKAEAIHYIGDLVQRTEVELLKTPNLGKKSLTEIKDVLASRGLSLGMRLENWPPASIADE
T1 sequence (P0A800 2-91 partner limits assumed): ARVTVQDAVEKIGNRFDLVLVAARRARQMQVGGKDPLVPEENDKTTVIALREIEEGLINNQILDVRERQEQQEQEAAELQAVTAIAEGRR
T1 sequence (P00579 whole entry partner): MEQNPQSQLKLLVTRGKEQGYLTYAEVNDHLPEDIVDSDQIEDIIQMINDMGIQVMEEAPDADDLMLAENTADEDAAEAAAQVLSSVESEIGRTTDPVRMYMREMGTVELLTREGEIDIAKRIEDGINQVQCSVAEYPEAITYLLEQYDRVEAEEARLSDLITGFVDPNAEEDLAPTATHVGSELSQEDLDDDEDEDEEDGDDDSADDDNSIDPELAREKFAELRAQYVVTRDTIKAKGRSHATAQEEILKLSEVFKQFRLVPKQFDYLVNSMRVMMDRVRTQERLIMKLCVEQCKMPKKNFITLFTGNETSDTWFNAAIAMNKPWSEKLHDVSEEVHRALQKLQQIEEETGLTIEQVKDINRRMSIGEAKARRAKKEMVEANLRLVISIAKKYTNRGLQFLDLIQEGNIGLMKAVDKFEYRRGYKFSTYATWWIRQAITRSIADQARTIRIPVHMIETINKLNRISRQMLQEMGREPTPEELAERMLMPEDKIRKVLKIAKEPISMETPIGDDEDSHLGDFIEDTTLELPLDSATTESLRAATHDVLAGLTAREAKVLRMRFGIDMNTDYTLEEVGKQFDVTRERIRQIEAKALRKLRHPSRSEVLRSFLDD

Row | Structure (SMILES) | IC50 [2] [nM] | IC50 [3] [nM] | other results
1 | Cc1cc2nc3c(=O)[nH]c(=O)nc-3n(C[C@H](O)[C@H](O)[C@H](O)COP(=O)(O)O)c2cc1C [FMN, Flavin mononucleotide] | 116 |  | Signal (cpm) of captured polyA full-length transcript ([1]; FIG. 5A, 100 μM FMN versus no FMN, DNA sequence encoding a polyA sequence): significant decrease in signal; IC50 ([1]; FIG. 11, 12.5 μM each rNTP, 2.5 mM Mg2+, 0.1 Unit RNA polymerase, radiolabel detection): 45 nM
2 | Cc1ncc(C[n+]2csc(CCOP(=O)(O)O)c2C)c(N)n1 [TMP, Thiamine monophosphate] |  | > 25000 | 
3 | Cc1ncc(C[n+]2csc(CCO[P@](=O)(O)OP(=O)(O)O)c2C)c(N)n1 [TPP, Thiamine pyrophosphate] |  | 170 | 
4 | CO[C@H]1/C=C/O[C@@]2(C)Oc3c(C)c(O)c4c(O)c(c(/C=N/N5CCN(C)CC5)c(O)c4c3C2=O)NC(=O)/C(C)=C\C=C\[C@H](C)[C@H](O)[C@@H](C)[C@@H](O)[C@@H](C)[C@H](OC(C)=O)[C@@H]1C [rifampin] |  |  | IC50 [4]: 8.2 nM
5 | Cc1cc2nc3c(=O)[nH]c(=O)nc-3n(C[C@H](O)[C@H](O)[C@H](O)CO)c2cc1N(C)C [roseoflavine, roseoflavin] | > 100000 |  | 
